Patent US8268893B2, “Use of dapsone as a neuroprotector in cerebral infarction” (Universidad Autonoma Metropolitana, priority 2003, dated 2012)
Values joined by “and” are separate entries in the source; they are usually repeats but may differ in a detail not shown here. Equal values may be shown once.

Columns and labels:
[1] = Stability of dapsone oral suspension; format: physicochemical; conditions: refrigeration at 4° C.
[2] = system: brain stroke model produced by occlusion of the middle cerebral artery; assay: Neurological functional scale in rats after permanent occlusion of the middle cerebral artery; format: in vivo, rat
Experimental: Dapsone was evaluated as neuroprotector in the brain stroke model produced by occlusion of the middle cerebral artery. The drug was suspended in a suitable vehicle.
3 groups of 5 animals each were treated with: Saline isotonic solution (551, control group), Dapsone (12.5 mg/kg) and Dapsone (9.375 mg/kg) injected by intraperitoneal route, 30 minutes after the occlusion of the middle cerebral artery, as described below.
The permanent selective brain ischemic was produced in the animals through introducing a suture thread intraluminal through the carotid artery. All animals received continuous anesthesia during the surgical procedure with halotane 1.5%, through a face mask. […]
During the 96 hours after the ischemic procedure, the animals were neurologically evaluated using a functional scale, each 24 hours.
For the neurological scale and percentage of the lesion volume in rats, the statistical significance was determined with the Kruskal-Wallis test, followed by the U test of MannWhitney.
The results of the neurological evaluation in rats are shown in FIG. 1, where the scores of the neurological test as a function of time can be observed, after producing the stroke in the rats. The results are expressed as the average of 4 independent experiments. […]

[3] = system: patients with acute brain stroke for thrombo-embolism; assay: Randomized, double-blind, placebo-controlled clinical trial in patients with acute brain stroke, NIH scale; format: in vivo, human
Experimental: This study evaluated the neuroprotector effect of dapsone in patients that, having suffered an acute brain stroke for thrombo-embolism, were admitted to the Emergency Services of the National Institute of Neurology and Neurosurgery “Manuel Velasco Suarez”. Dapsone was administered in a single dose of 200 mg in suspension, orally. […] Dapsone was administered blinded to 15 patients, while other 15 patients were administered with an anti-acid suspension, as a placebo medication. Patients were randomly allocated into one of the treatment groups, using random numbers, generated by a pocket calculator. Both medications were administered during the first twelve hours after the brain stroke. As result of these procedures, the clinical trial was randomized, double-blind and placebo-controlled. The evaluation of clinical signs and symptoms was performed in blind by an expert neurologist, with the NIH scale, that quantifies the intensity of disabilities caused by the brain stroke. Said scale was applied at the time the patient entered the study (day zero) and 2, 6 and 30 days after the brain stroke. A stroke is considered as moderately severe or severe, when the NIH rated a value higher than seven. The NIH scale results in the two groups of patients were statistically analyzed with analysis of variance analysis (ANOVA) using as co-variables the NIH scale at the admittance day (day zero), as well as the gender, age, blood pressure and other important clinical variables for the patient's performance. The results in patients with acute thrombo-embolic brain stroke, are shown in FIG. 3, which presents the scores of the neurological scale (NIH) as a function of time (in days) after administering dapsone or the placebo. The results are expressed as the average of 15 patients per group +/−the standard error.

[4] = system: brain stroke model produced by occlusion of the middle cerebral artery; assay: Ischemic lesion volume (histology) in rats 96 hours after occlusion of the middle cerebral artery; format: in vivo, rat; conditions: for reduction of ischemic lesion volume in comparison with the control group: 96 hours
Experimental: Dapsone was evaluated as neuroprotector in the brain stroke model produced by occlusion of the middle cerebral artery. The drug was suspended in a suitable vehicle. 3 groups of 5 animals each were treated with: Saline isotonic solution (551, control group), Dapsone (12.5 mg/kg) and Dapsone (9.375 mg/kg) injected by intraperitoneal route, 30 minutes after the occlusion of the middle cerebral artery, as described below. The permanent selective brain ischemic was produced in the animals through introducing a suture thread intraluminal through the carotid artery. All animals received continuous anesthesia during the surgical procedure with halotane 1.5%, through a face mask. Animals were placed in dorsal decubitus position, fixed and shaved in the anterior cervical region to make an incision in the middle line from the sternum towards the region of the sternohiodeous muscle, to its side rim, identifying in this side the middle rim of the sternocleidomastoideus and the superficial cervical aponeurosis in its deep leaf, same that was cut to leave exposed the common carotid blow and inside the caudal belly of the digastric. A cutting dissection of the common carotid was performed, until the hypoglose loop. The carotid bifurcation was identified, external carotid and its occipital and thyroid branches, the two latter were joined with mono-filament of 8-0 as well as with electrocoagulation for its later cut. The internal carotid was dissected in a length of approximately 5 mm and at that time the pterigo-palatine artery was identified. A microchip was placed or it was joined with mono-filament 6-0. Once the flux was stopped through these artery affluent, the mono-filament nylon 3-0 was introduced towards the internal carotid artery, through the stub of the external carotid artery, for a length of 17 mm as of the bifurcation. The wound was closed, and the animal was left to recover, with water and food ad libitum. In all cases, ischemia was verified by macroscopic observation and for the position of the thread. At the end of the 96 hours of observation, animals were sacrificed with an overdose of sodium pentobarbital by intraperitoneal route, and their brains were extracted by craniectomy. Once extracted, the brains were fixed with anhydrous alcohol during two weeks. The usual histological process was performed, as well as sections of 10 μm, storing a section each 200 μm. […] The area of each tissue section was determined using a digital analysis system and a photographic amplifier. […] Each section was assessed for 3 determinations: A) total area, including ventriculus B) Ventricular area C) Ischemic area, according to the pathologist's review. […] The results are expressed as the average+/-standard error of 4 independent experiments.

Nc1ccc(S(=O)(=O)c2ccc(N)cc2)cc1 [dapsone]
stability of the suspension [1]: stable in refrigeration at 4° C., for up to one month
reduction in the severity of the neurological symptoms in comparison with the control group [2]: 50%
recovery from the ischemic lesion in the neurological test compared to the control group ([2]; 9.375 and 12.5 mg/kg ip, evaluated each 24 hours for 96 hours, p<0.05): recovered better from the ischemic lesion, significantly
side effects ([3]; for the dose used): No side effects
effective dose ([3]; model not stated, printed after the patient result): 0.013 mmol/kg
clinical improvement (in words) ([3]; patients, 200 mg orally): significant clinical improvement
clinical improvement of neurological symptoms (NIH scale), in average ([3]; patients, single 200 mg oral dose within first twelve hours after stroke): 67%
reduction of ischemic lesion volume in comparison with the control group ([4]; 9.375 mg/kg ip 30 minutes after occlusion): 93%
reduction of ischemic lesion volume in comparison with the control group ([4]; 12.5 mg/kg ip 30 minutes after occlusion, 12.5 mg/kg): 91% and 90%
efficacy to reduce the volume of brain damage produced by the stroke ([4]; dose of 9.325 mg/kg): 93%
